Test results taken from patent publication US12285397B2, “Use of (s)-3-amino-4-(difluoromethylenyl) cyclopent-1-ene-1-carboxylic acid and related compounds, (1S,3S)-3-amino-4-(difluoromethylidene) cyclopentane-1-carboxylic acid and vigabatrin in the treatment of developmental disorders” (Ovid Therapeutics Inc., priority 2018, dated 2025).
Where two headings read alike, the source gives them in different places.

Columns and labels:
[1] = cited from earlier work; for tmax: single 37-50 mg/kg dose of an oral solution
[2] = cited from earlier work
Fmr1 KO2 mice = experiment: Open field hyperactivity (locomotor activity), Fmr1 KO2 mice; format: in vivo, mouse; conditions: 0.1 mg/Kg
Excerpt: (§1) Mutant fmr1 knockout (KO) mice recapitulate the Fragile X syndrome (FXS) phenotype and represent a preclinical model for assessment of putative drug treatments. In this study three different mice models of FXS were used: Fmr1 KO1 is the original Fmr1 knockout animal that carries an insertion in exon 5. See, e.g., Bakker C E, et al., The Dutch-Belgian Fragile X Consortium, Fmr1 knockout mice: A model to study fragile X mental retardation. Cell. 1994; 78:23-33 It is a protein null, although Fmr1 mRNA is still present. It is backcrossed to the C57/B16 strain. Subsequently, these mice were bred into different background strains, such as the FVB inbred mouse strain. Fmr1 KO2 is a null allele at Fmr1 generated by deletion of the promoter and first exon of Fmr1. See, Mientjes, E J et al., The generation of a conditional Fmr1 knock out mouse model to study Fmrp function in vivo. Neurobiology of Disease (2006) 21(3): 549-555. It is both protein and mRNA null. Backcrossed to the C57/B16 strain. Genotyping was accomplished using TransnetXY Automated Genotyping (http://www.transnetyx.com/). TRANSNETYX, INC., 8110 Cordova Rd. Suite 119, Cordova, TN 38016, USA.
(§2) The mice were housed in plastic cages (35×30×12 cm), 5 in each and habituated to the animal facilities for at least a week before test. The room temperature (21±2° C.), relative humidity (55±5%), a 12-h light-dark cycle (lights on 7 a.m.-7 p.m.) and air exchange (16 times per h) were automatically controlled. The animals had free access to commercial food pellets and water. Testing was conducted during the light phase. Testing was conducted on Fmr1 knockout mice and their wild-type (WT) littermates. Ten mice per treatment group, 14 weeks of age, were used for behavioral experiments. Experiments were conducted in line with the requirements of the UK Animals (Scientific Procedures) Act, 1986.
(§3) Oral dosing was performed by using 1.5-in. curved, 20-gauge, stainless steel feeding needles with a 2.25-mm ball (Braintree Scientific, Braintree, MA). Each gavage treatment was given in 0.5% methyl cellulose (Methyl Cellulose M0512, Sigma-Aldrich, St Louis, MO) used as vehicle with or without treatment compounds. The same veterinarian, blinded to the treatment groups, performed the procedure, and documented animal reactions to oral gavage. Reactions considered to indicate stress were defined as excessive struggling during gavage or abnormal behavior after gavage (labored breathing, frozen stance, exaggerated jumping, shuddering, and hunched posture).
(§4) For experiments all mice were tested once in the same apparatus. Prior to testing, mice not in the study were placed in the apparatus for some minutes before the experiment. The apparatus was then cleaned with moist and dry tissues before testing each mouse. The aim was to create a low but constant background mouse odor for all experimental subjects. All experiments were conducted with the experimenters blind to genotype and drug treatment during all testing and data analysis. Separate investigators prepared and coded dosing solutions, allocated the mice to the study treatment groups, dosed the animals, and collected the behavioral data. Data were analyzed by one-way analysis of variance (ANOVA) followed by post-hoc comparisons where appropriate using Tukey's Multiple Comparison Test. Data are represented as the mean and standard error of the mean (SEM).
1. […]

Fmr1 KO1 mice = experiment: Open field hyperactivity (locomotor activity), Fmr1 KO1 mice; format: in vivo, mouse; conditions: 0.1 mg/Kg
Excerpt: as §1, §2, §3, §4
1. […]

[3] = system: Fmr1 KO1 transgenic mice in an FVB background; experiment: Audiogenic seizures (AGS), Fmr1 KO1 mice in FVB background; format: in vivo, mouse; conditions: tested 20 minutes after injection, audio stimulus 60 seconds at 124 db
Description: 4. Audiogenic Seizures (AGS) are reflex seizures generated by loud noises in genetically predisposed mice. The Fmr1 KO1 mice display audiogenic seizures depending on age and background strain, the Fmr1 KO1 mouse on the FVB background is characterized by an increased AGS susceptibility at all ages and is considered a good animal model for epilepsy. The effect of (S)-3-amino-4-(difluoromethylenyl) cyclopent-1-ene-1-carboxylic acid was tested on AGS Fmr1 KO1 transgenic mice in an FVB background. Observable criteria are: 1. normal behavior, 2. wild running, 3. seizure, and 4. respiratory arrest.
(S)-3-amino-4-(difluoromethylenyl) cyclopent-1-ene-1-carboxylic acid was administered to Fmr1 KO1 mice, males, age 2 months in the following amounts: 0.01 mg/kg, 0.05 mg/kg, and 0.1 mg/kg. Positive controls were administered 2-Methyl-6-(phenylethynyl)pyridine (MPEP), a mGluR5 antagonist, 30 mg/kg by i.p. and tested 20 minutes after injection. Audio stimulus was administered continuously for 60 seconds at 124 db.

[4] = MPEP (positive control) 30 mg/kg i.p.

**Q.** Which “cerebrospinal concentrations as share of the plasma concentration” value ([1]; 6 h after a single oral dose) does the source give for `C=CC(N)CCC(=O)O` (racemic) [vigabatrin, (RS)-4-aminohex-5-enoic acid] here?
**A.** The value was 10%.

**Q.** What about the terminal half-life ([1]; adults) of the same molecule?
**A.** The terminal half-life was ~10.5 h.

**Q.** What about the terminal half-life ([1]; children (10 years-16 years)) of the same molecule?
**A.** The terminal half-life was ~9.5 h.

**Q.** What about the “area under plasma concentration-time curves versus dose” value ([1]; in vivo) of the same molecule?
**A.** Its value is “dose-linear pharmacokinetics”.

**Q.** What about the protein binding ([1]; in vivo) of the same molecule?
**A.** The protein binding was “lack of protein binding”.

**Q.** What about the terminal half-life ([1]; infants (5 months-2 years)) of the same molecule?
**A.** The terminal half-life was “about 5.7 hours”.

**Q.** What about the tmax ([1]; children) of the same molecule?
**A.** The tmax was “about 1 hour”.

**Q.** And the tmax ([1]; neonates and infants)?
**A.** Its tmax is “approximately 2.5 hours”.

**Q.** Which results are given for `N[C@H]1C[C@@H](C(=O)O)CC1=C(F)F` [(1S,3S)-3-amino-4-(difluoromethylidene)cyclopentane-1-carboxylic acid]?
**A.** increase in AUCs with dose ([2]; in the dose range 5 mg-500 mg): greater than proportional increase; Cmax increase with dose ([2]; over a range of 5 mg-500 mg): dose proportional

**Q.** Which “Effect on open field hyperactivity (FIG. 1)” value (Fmr1 KO2 mice) does the source give for `N[C@H]1C=C(C(=O)O)CC1=C(F)F` [(S)-3-amino-4-(difluoromethylenyl)cyclopent-1-ene-1-carboxylic acid] here?
**A.** The value was “significantly reduced”.

**Q.** What about the “Effect on open field hyperactivity (FIG. 7)” value (Fmr1 KO1 mice) of the same molecule?
**A.** Its value is “reversed hyperactivity”.

**Q.** Which Seizure ([3]; 30 mg/kg i.p.) does the source give for `Cc1cccc(C#Cc2ccccc2)n1` [MPEP, 2-Methyl-6-(phenylethynyl)pyridine, reference compound] here?
**A.** The Seizure was 0/10.

**Q.** And the Wild running ([3]; 30 mg/kg i.p.)?
**A.** The Wild running was 0/10.

**Q.** What about the Incidence [3, 4] of the same molecule?
**A.** Its Incidence is 0%.

**Q.** And the Respiratory arrest [3, 4]?
**A.** The Respiratory arrest was 0/10.
